Measurements: BindingDB's records for doi:10.7270/Q2862DWJ (Nmmlsc, 2009)
pEC50: −log10 of the molar value.

Each molecule was assayed against Isoform Bcl-X(L) of Bcl-2-like protein 1 (Bcl-xL) (Homo sapiens, UniProt Q07817) (assay: Bim-Bcl-XL interaction inhibitors, hit retest, confirmation, biochemical, dose response, multiplexed, HTS hits (AID 2084)). Conditions: inactive by the depositor's call.
Chain of Isoform Bcl-X(L) of Bcl-2-like protein 1 (Bcl-xL) (Q07817 whole entry G70A, canonical isoform): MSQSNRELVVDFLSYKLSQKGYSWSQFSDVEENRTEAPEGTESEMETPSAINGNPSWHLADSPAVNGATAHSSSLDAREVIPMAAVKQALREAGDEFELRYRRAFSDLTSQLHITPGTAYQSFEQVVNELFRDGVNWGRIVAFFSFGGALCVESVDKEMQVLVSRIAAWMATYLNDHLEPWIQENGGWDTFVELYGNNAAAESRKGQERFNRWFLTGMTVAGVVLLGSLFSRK
For O=c1[nH]c(O)c(Cc2ccc(-c3cc(Cl)ccc3[N+](=O)[O-])o2)c(=O)[nH]1, the pEC50 was 4.58.
CNC1CCC(Br)CC(C(=O)C=Cc2cccc(OC)c2OC)C1=O (stereo not given) [4-bromo-2-[(E)-3-(2,3-dimethoxyphenyl)-1-oxoprop-2-enyl]-7-(methylamino)-1-cycloheptanone] was tested, and the pEC50 was 4.34.
Cc1ccc(-c2nc3c(c(=O)[nH]c(=O)n3Cc3ccccc3)n2C)o1 [7-methyl-8-(5-methyl-2-furanyl)-3-(phenylmethyl)purine-2,6-dione] showed a pEC50 of 4.36.
Work on Clc1nc(NCc2cccnc2)nc(N2CCOCC2)n1 [MLS000121154] yielded a pEC50 of 4.82.
In the case of COc1ccc(CCNC(=O)c2ccc3nc(-c4ccco4)c(-c4ccco4)nc3c2)cc1OC [N-[2-(3,4-dimethoxyphenyl)ethyl]-2,3-di-2-furylquinoxaline-6-carboxamide], the pEC50 was 4.74.
